In ChEMBL document CHEMBL1201862, “PubChem BioAssay data set” (2004):
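Where inhibition never reached the appropriate level, the endpoint shown equals the highest concentration tested. Otherwise, values were interpolated linearly from a five-concentration, 48-hour dose response in 96-well plates. Here, GI50 denotes the concentration required for 50% inhibition of growth.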 Active and inactive are the calls of the source. Rule as the data show it: active = GI50 up to about 1.1 µM and inactive = higher.

Legend:
Experiment in all cases: DTP human tumour cell line panel, 48 h
DMS-114 = test system: DMS-114
HOP-18 = test system: HOP-18
DLD-1 = test system: DLD-1
DMS-273 = test system: DMS-273
SNB-78 = test system: SNB-78
M19-MEL = test system: M19-MEL
XF498 = test system: XF498
RXF 631 = test system: RXF 631
LXFL 529 = test system: LXFL 529

Measured: GI50

COc1ccccc1NC(=O)CSC(N)=O
inactive: DMS-114 46.2 µM | HOP-18 82.8 µM | DLD-1 42.1 µM | DMS-273 34.4 µM | SNB-78 50.4 µM | M19-MEL 29.2 µM | XF498 30.8 µM

NS(=O)(=O)c1ccc(NC(=O)c2cccc3cc4ccccc4nc23)cc1
inactive: DMS-114 97.7 µM | RXF 631 29.2 µM | HOP-18 > 100 µM | LXFL 529 25 µM | DLD-1 17.1 µM | DMS-273 9.44 µM | SNB-78 > 100 µM | M19-MEL 37.2 µM | XF498 49.7 µM

N#CN1CCC=C(c2cc3ccccc3[nH]2)C1
inactive: RXF 631 281 µM | HOP-18 > 448 µM | LXFL 529 236 µM | DLD-1 370 µM | DMS-273 428 µM | M19-MEL 243 µM

Cn1cc(NC(=O)c2cc(NC(=O)CCCCCCCC(=O)Nc3cc(C(=O)Nc4cc(C(=O)NCCC(=N)N)n(C)c4)n(C)c3)cn2C)cc1C(=O)NCCC(=N)N
inactive: DMS-114 4.03 µM | RXF 631 56.9 µM | HOP-18 34 µM | LXFL 529 12.4 µM | DLD-1 30.9 µM | DMS-273 11.2 µM | SNB-78 35.2 µM | M19-MEL 5.43 µM | XF498 29.2 µM

O=S(=O)(c1ccccc1)c1nccs1
inactive: DMS-114 > 100 µM | HOP-18 > 100 µM | LXFL 529 > 100 µM | DLD-1 > 100 µM | DMS-273 > 100 µM | SNB-78 > 100 µM | M19-MEL > 100 µM | XF498 > 100 µM

CCCc1nc(NC#N)nc(C(=O)NC23CC4CC(CC(C4)C2)C3)c1C
inactive: DMS-114 > 100 µM | HOP-18 > 100 µM | LXFL 529 > 100 µM | DLD-1 > 100 µM | DMS-273 > 100 µM | SNB-78 > 100 µM | M19-MEL > 100 µM

Cc1cccc(Cl)c1NC(N)=S
inactive: DMS-114 18.5 µM | RXF 631 35.9 µM | HOP-18 11.1 µM | LXFL 529 31.8 µM | DLD-1 57.7 µM | DMS-273 20.5 µM | SNB-78 77.1 µM | M19-MEL > 100 µM

O=C1N[C@@H]2CCCC[C@@H]2C12CCCCC2
inactive: RXF 631 > 100 µM | HOP-18 > 100 µM | LXFL 529 > 100 µM | DLD-1 > 100 µM | SNB-78 > 100 µM | M19-MEL > 100 µM | XF498 > 100 µM

NC(=S)N/N=C(\CC1OC(=O)c2ccccc21)c1ccc(Cl)cc1 (centres undefined)
inactive: DMS-114 24.6 µM | RXF 631 24 µM | LXFL 529 28.8 µM | DLD-1 41.3 µM | DMS-273 41 µM | SNB-78 36.9 µM | M19-MEL 21.9 µM | XF498 47 µM

NC1(C(=O)O)CCC(C(=O)O)CC1 (centres undefined)
inactive: DMS-114 > 100 µM | RXF 631 > 100 µM | HOP-18 > 100 µM | LXFL 529 > 100 µM | DLD-1 > 100 µM | DMS-273 > 100 µM | SNB-78 > 100 µM | M19-MEL > 100 µM | XF498 > 100 µM

CNS(=O)(=O)NNS(=O)(=O)c1ccc(C)cc1
inactive: DMS-114 > 100 µM | DLD-1 > 100 µM | M19-MEL > 100 µM

Cc1cccc(C)c1NC(=O)CCCC(=O)CC(=O)/C=C/c1ccccc1
inactive: DMS-114 > 100 µM | RXF 631 > 100 µM | HOP-18 > 100 µM | LXFL 529 > 100 µM | DLD-1 > 100 µM | DMS-273 > 100 µM | SNB-78 > 100 µM | M19-MEL > 100 µM | XF498 > 100 µM

Cc1ccc2nc(/C(=C/c3ccc(/C=C(\NC(=O)c4ccccc4)c4nc5ccc(C)cc5[nH]4)c(C)c3)NC(=O)c3ccccc3)[nH]c2c1
inactive: DMS-114 7.57 µM | RXF 631 19.2 µM | LXFL 529 1.5 µM | DLD-1 3.02 µM | DMS-273 22.6 µM | SNB-78 23.1 µM | M19-MEL 4.36 µM | XF498 3.76 µM

CCN(CC)c1ccc(/N=N\c2ccc(-c3nc4ccc[n+](C)c4s3)cc2)cc1
inactive: HOP-18 16.7 µM | LXFL 529 3.24 µM | DMS-273 3.65 µM | SNB-78 4.37 µM | M19-MEL 3.55 µM

C#CCC[C@@H]1O[C@@]1(C)CC/C=C(\C)CC/C=C/C=O
inactive: DMS-114 14.6 µM | LXFL 529 20.1 µM | DMS-273 20 µM | SNB-78 25.3 µM | M19-MEL 24.2 µM | XF498 24.2 µM

CC#N.O[C@@H]1CCCC[C@H]1O.O[C@@H]1CCCC[C@H]1O.[TeH2]
inactive: DMS-114 44.7 µM | RXF 631 22.8 µM | HOP-18 23.3 µM | LXFL 529 37.7 µM | DLD-1 32.2 µM | DMS-273 18.1 µM | SNB-78 > 100 µM | M19-MEL 21.5 µM

CN(C)CCC1(C2=CCCC2)CC/C(=C\c2ccc3c(c2)OCO3)C1=O (centres undefined)
inactive: DMS-114 14.8 µM | RXF 631 15.2 µM | HOP-18 13.6 µM | LXFL 529 12.9 µM | DLD-1 17.1 µM | SNB-78 16.8 µM | M19-MEL 18.6 µM
